According to PubChem BioAssay (NCI):
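Values below derive from 48-hour exposures of cells grown in 96-well plates, with endpoints linearly interpolated between the two concentrations bracketing the appropriate inhibition level. The concentration for 50% growth inhibition is given as GI50. TGI: total growth inhibition.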 Starred links: 1 amine or outer side, 2 acyl side, 3 side chain; linkers in the order of their positions; H or OH if unused. Positions of bridges follow the written chain, without caps; N, C: chain ends. Non-standard residues stand in square brackets, D forms with d. Residues, ends and D or L forms follow the SMILES beside them. Chains are numbered I, II in the order given. Actinocin(1to9) = Cc1c2oc3c(C)ccc(C(=O)[*:2])c3nc-2c(C(=O)[*:1])c(N)c1=O; NMeV = CN[CH](C(=O)O)C(C)C; Sar = CNCC(=O)O

Legend:
Experiment in all cases: NCI-60 cell line screen, 48 h
[1] = tested on: 786-0 renal
[2] = tested on: IGROV1 ovarian
[3] = tested on: HL-60(TB) leukemia
[4] = tested on: HS 578T breast
[5] = tested on: NCI-H460 lung
[6] = tested on: CAKI-1 renal
[7] = tested on: T-47D breast
[8] = tested on: ACHN renal
[9] = tested on: LOX IMVI melanoma
[10] = tested on: A498 renal
[11] = tested on: HOP-92 NSCLC
[12] = tested on: TK-10 renal

Compound | TGI [1] | TGI [2] | TGI [3] | TGI [4] | TGI [5] | TGI [6] | TGI [7] | TGI [8] | TGI [9] | TGI [10] | TGI [11] | TGI [12] | GI50 [10] | GI50 [4] | GI50 [5] | GI50 [11] | GI50 [12] | GI50 [7] | GI50 [9] | GI50 [8]
c1ccc(-c2nnn3c2NC2=C(CCCC2)C3c2ccccc2)cc1 (stereo not given) | 36.4 µM | 40.2 µM | 37.2 µM | 81.7 µM | 52.8 µM | 38.8 µM | 49.9 µM | 3.09 µM | 27 µM | – | – | – | – | – | – | – | – | – | – | –
CCOC(=O)C(/C(=N/S(=O)(=O)c1cc(C)c(Cl)cc1[S-])[n+]1ccc(N(C)C)cc1)=C(/O)c1ccc([N+](=O)[O-])cc1 | > 100 µM | > 100 µM | 64.5 µM | – | > 100 µM | 99.7 µM | > 100 µM | 71.6 µM | – | 60.4 µM | 23.9 µM | 58.7 µM | – | – | – | – | – | – | – | –
N#CC12Cc3cc4c(cc3-c3cccc(c31)CCN2C(=O)c1ccccc1)OCO4 (stereo not given) | – | > 100 µM | > 100 µM | – | – | – | – | > 100 µM | > 100 µM | > 100 µM | 89.5 µM | > 100 µM | – | – | – | – | – | – | – | –
O=C(O)c1ccc(C(=O)c2ccccc2C(=O)O)cc1C(=O)O | > 100 µM | > 100 µM | > 100 µM | > 100 µM | > 100 µM | > 100 µM | > 100 µM | > 100 µM | > 100 µM | > 100 µM | > 100 µM | > 100 µM | – | – | – | – | – | – | – | –
OC(c1ccccc1)(c1ccccc1)c1nccc2ccccc12 | > 100 µM | > 100 µM | > 100 µM | > 100 µM | 43.7 µM | > 100 µM | > 100 µM | > 100 µM | 44.3 µM | – | – | > 100 µM | – | – | – | – | – | – | – | –
Nc1c(C(=O)O)nnc2cc(Cl)c(Cl)cc12 | > 100 µM | > 100 µM | > 100 µM | > 100 µM | > 100 µM | > 100 µM | > 100 µM | > 100 µM | > 100 µM | > 100 µM | – | > 100 µM | – | – | – | – | – | – | – | –
COc1ccc(C(=O)C2=NON3OC23C(=O)c2ccc(OC)cc2)cc1 (stereo not given) | 10.6 µM | 27.3 µM | – | – | 40 µM | 6.79 µM | – | 31.3 µM | 11.4 µM | 18.2 µM | 5.16 µM | 34.1 µM | – | – | – | – | – | – | – | –
Cc1ccccc1N=Nc1c(O)c(S(=O)(=O)O)cc2cc(S(=O)(=O)O)ccc12 | > 100 µM | > 100 µM | > 100 µM | > 100 µM | > 100 µM | > 100 µM | > 100 µM | > 100 µM | – | > 100 µM | > 100 µM | > 100 µM | – | – | – | – | – | – | – | –
CN(C)c1ccc(C=Nc2ccc(Oc3ccc(Cl)cc3)c(Cl)c2)cc1 | – | 85.1 µM | 40.1 µM | 33.2 µM | 42.1 µM | 67.2 µM | 75.3 µM | 79.6 µM | 47.6 µM | – | 36.1 µM | > 100 µM | – | – | – | – | – | – | – | –
COCC1CCCN1c1ccc(C=N/C(C#N)=C(\N)C#N)cc1 (stereo not given) | – | – | – | > 100 µM | > 100 µM | – | > 100 µM | – | > 100 µM | > 100 µM | 46 µM | > 100 µM | > 100 µM | > 100 µM | > 100 µM | 14.3 µM | 49.2 µM | > 100 µM | > 100 µM | –
Cc1coc2c1C[C@@]1(C)[C@H](CCC[C@@H]1C)[C@H]2O | – | 65.4 µM | 44.6 µM | > 100 µM | > 100 µM | > 100 µM | 84.2 µM | 78.3 µM | > 100 µM | – | 66.2 µM | > 100 µM | – | – | – | – | – | – | – | –
CC(C)(C)OC(=O)n1c2ccccc2c2c(=O)nc(N3CCCCC3)sc21 | > 100 µM | > 100 µM | > 100 µM | > 100 µM | > 100 µM | > 100 µM | > 100 µM | > 100 µM | > 100 µM | > 100 µM | > 100 µM | > 100 µM | – | – | – | – | – | – | – | –
O=c1ccc2nc3cc(Br)ccc3sc-2c1 | – | > 100 µM | 37.5 µM | – | > 100 µM | > 100 µM | – | > 100 µM | – | – | > 100 µM | > 100 µM | – | – | – | – | – | – | – | –
CC(=O)OC1CC[C@@]2(C)C(=CC[C@@H]3[C@@H]2CC[C@]2(C)Nc4nn(S(C)(=O)=O)cc4C[C@@H]32)C1 (stereo not given in full) | – | > 100 µM | – | > 100 µM | 72.5 µM | > 100 µM | 54.5 µM | – | – | > 100 µM | > 100 µM | – | – | – | – | – | – | – | – | –
COc1nc2[nH]ccc2c(=O)[nH]1 | – | > 100 µM | > 100 µM | – | > 100 µM | > 100 µM | – | > 100 µM | > 100 µM | > 100 µM | > 100 µM | > 100 µM | – | – | – | – | – | – | – | –
C[N+]1(CCC(=O)c2ccco2)CC2CCC(CC2)C1 (stereo not given) | > 100 µM | > 100 µM | – | > 100 µM | > 100 µM | > 100 µM | > 100 µM | > 100 µM | > 100 µM | > 100 µM | > 100 µM | > 100 µM | – | – | – | – | – | – | – | –
Cn1cnc([N+](=O)[O-])c1Sc1nc(N)nc2c1ncn2C1OC(CO)C(O)C1O (stereo not given) | > 100 µM | > 82.1 µM | 28.4 µM | > 100 µM | 28.1 µM | > 100 µM | > 100 µM | > 100 µM | > 21.4 µM | – | > 100 µM | 87.6 µM | – | – | – | – | – | – | – | –
COCCNCc1ccc(-c2cc3nccc(Oc4ccc(NC(=S)NC(=O)Cc5ccc(F)cc5)cc4F)c3s2)nc1 | – | – | – | 4.91 µM | – | – | 5.75 µM | 4.54 µM | – | 8.71 µM | 4.48 µM | 5.08 µM | 2.11 µM | 1.81 µM | – | 1.22 µM | 2.45 µM | 2.12 µM | – | 1.97 µM
CC(C)(C)OC(=O)NC(CCCCNC(=O)OCc1ccccc1)C(=O)NCCNc1ccc(NCCNC(=O)C(CCCCNC(=O)OCc2ccccc2)NC(=O)OC(C)(C)C)c2c1C(=O)c1ccccc1C2=O (stereo not given) | > 100 µM | > 100 µM | – | > 49.7 µM | > 100 µM | > 100 µM | 28 µM | > 100 µM | > 100 µM | > 100 µM | > 71.4 µM | > 100 µM | – | – | – | – | – | – | – | –
OCc1cn(C(c2ccccc2)(c2ccccc2)c2ccccc2)cn1 | – | > 100 µM | > 100 µM | 95.7 µM | > 100 µM | > 100 µM | > 100 µM | > 100 µM | > 100 µM | – | > 100 µM | > 100 µM | – | – | – | – | – | – | – | –
O=c1[nH]c(Nc2ccc(Cl)c(C(F)(F)F)c2)nc2nc[nH]c12 | 74.8 µM | > 100 µM | – | > 100 µM | > 100 µM | > 100 µM | > 100 µM | > 100 µM | 81.7 µM | 60.9 µM | > 100 µM | > 100 µM | – | – | – | – | – | – | – | –
Clc1ccccc1/C=c1\nc(-c2ccccc2)n2c1nc1ccccc12 | > 100 µM | > 100 µM | > 100 µM | > 100 µM | > 100 µM | > 100 µM | > 100 µM | > 100 µM | > 100 µM | > 100 µM | > 100 µM | > 100 µM | – | – | – | – | – | – | – | –
Cn1c(=O)[nH]c2nncnc2c1=O | – | 133 µM | 55.2 µM | – | 245 µM | 46.5 µM | – | – | > 625 µM | 475 µM | 71.2 µM | – | – | – | – | – | – | – | – | –
Nc1ncnc2c1sc1nc3ccccc3n12 | – | > 100 µM | – | > 96.4 µM | > 100 µM | > 100 µM | > 100 µM | > 100 µM | – | > 100 µM | > 100 µM | > 100 µM | – | – | – | – | – | – | – | –
CCC(C)C1NC(=O)C(NC(=O)c2c3nc4c(C(=O)NC5C(=O)NC(C(C)CC)C(=O)N6CCCC6C(=O)N(C)CC(=O)N(C)C(C(C)C)C(=O)OC5C)ccc(C)c4oc-3c(C)c(=O)c2N)C(C)OC(=O)C(C(C)C)N(C)C(=O)CN(C)C(=O)C2CCCN2C1=O (stereo not given) (I: TIP[Sar][NMeV] / II: TIP[Sar][NMeV]; ester I:1-I:C, II:1-II:C; linker I:N-II:N via Actinocin(1to9); configuration not given here) | 10.4 µM | – | 0.0186 µM | 0.0841 µM | – | 0.0861 µM | 0.0122 µM | – | – | 0.0629 µM | 0.085 µM | 0.0755 µM | – | – | – | – | – | – | – | –
